The results in this text go back to patent US5389621A, “Method of enhancing the anticoagulant effects of aspirin using salicylamide” (University of Medicine and Dentistry of New Jersey, priority 1994, dated 1995).

The nature of series [1]: Tissue distribution of aspirin and its metabolites (SA, SUA, GA, DBA) by HPLC after 14C-aspirin. As to conditions: for Aspirin level in tissues studied (plasma, lung, liver, heart, kidney): 1.5 hours after 14C-ASA alone or with SAM, low and high doses. As for the experimental part:
(§1) Male adult Sprague-Dawley rats (300-325 gm) obtained from Charles River Breeding Laboratory, N. Wilmington, Mass. were quarantined for one week. All animals were identified by ear punching. Food and water were provided ad libitum. The animals were maintained on rodent lab chow diet in a controlled environment with 50% humidity and 12 hour light/dark cycle.
Forty-eight rats were divided into two groups. The first group of rats was administered ASA, SAM or their combination in a dose approximately equal (w/w) to that in the commercially available combinations, e.g., BC® formula, when administered to humans, i.e., 10 and 3 mg/kg of ASA and SAM, respectively. The second group was administered double the dosage received by the first group.
The rats were anesthetized by light diethyl ether inhalation. A blood sample of nearly 3 ml was collected by cardiac puncture 1.5 hours after oral administration. The blood was transferred to chilled polyethylene tubes containing 30 μl of 50% (w/w) potassium fluoride to prevent hydrolysis of ASA. A 300 μl aliquot was pipetted in a scintillation vial to study the distribution in whole blood. The rest of the collected blood was immediately centrifuged at 1800×g for 10 minutes at 4° C. and the plasma was decanted. 100 μl of the plasma were pipetted in a scintillation vial for measurement of the total radioactivity and the rest of the plasma was stored immediately at -70° C. for later study of the distribution of the metabolites.
Liver, kidney, plasma, lung and heart were stored at -70° C. for later study of their content of the metabolites of aspirin or salicylamide using an HPLC method. Liver, kidney and plasma of the rats treated with aspirin or the combination were also investigated for the presence of salicyl glucuronide conjugates by using HPLC and acid hydrolysis assays.
A Waters HPLC system (Waters Chromatography, Division of Millipore, Milford, Mass.) was used, consisting of: Waters 680 automated gradient controller, two model 510 pumps, model U6K universal liquid chromatography injector, Lambda Max model 481 variable wavelength UV/Vis absorbance detector, Data Module 730, 3.9 mm×15 cm NOVA-PAK 4 μm silica packing steel column, C-18 Guard-Pak, Hamilton syringes of 10, 100, and 250 μl capacity (Hamilton Co., Reno, Nev.), and Milli-Q(tm) Millipore water filtration system #CDOFO 1205 (Waters, Division of Millipore, Milford, Mass.).
1--For the analysis of ASA and its metabolites in tissues: the mobile phase was 2% acetic acid/methanol, 95:5, at a flow rate of 1.4 ml/minute.
The detection wavelength was 240 nm and the sensitivity of the detector was 0.02 AUFS (Absorbance Unit Full Scale).

Series [2] is described as follows: Tissue distribution of 14C-salicylamide (parent) by HPLC. In kind it is in vivo, male Sprague-Dawley rats. As to conditions: for concentration at 1.5 h: rat. The text has this: Forty-eight rats were divided into two groups.
The rats were anesthetized by light diethyl ether inhalation.

Series [3] in a line: Excretion study: effect of salicylamide on aspirin excretion. As to conditions: for Rate order of excretion of metabolites: first 24 hours, urine. As for the experimental part: as §1
The dose of radiolabeled ASA administered was 5 μCi per rat. Rats were fasted overnight prior to the administration of the treatments.
Rats were gavaged with the treatment solution and were immediately placed in Silverman metabolic glass chambers (Bioserv, Inc., Frenchtown, N.J.), one rat per chamber. Rats were administered water ad libitum while food was withheld until 1.5 hours following treatment administration. Urine was collected at 8, 16, 24, 48 and 72 hours. Feces were collected in preweighed clean plastic cups at 24, 48 and 72 hours after dosing. The expired air was channeled through a series of activated charcoal tubes to trap any radiolabeled compound that is excreted via the lungs and the tubes were collected at the end of the study 72 hours after dosing.
The urine samples were collected and the volume was measured using a 10 ml graduated glass pipette. The urine was shaken, and 100 μl of each urine sample were pipetted in a scintillation vial with 15 ml of Aquasol-2 for radioactivity assessment. The rest of the urine was stored at -70° C. for later analysis of its content of salicylic acid (SA) and salicyluric acid (SUA), the major metabolites of ASA.
Fecal weight was determined for each time-point collection and deionized water was added to feces in a ratio of feces:water, 1:3 (w/w).
The activated charcoal was carefully emptied in small glass tubes and extracted with 1 ml of methanol and the tubes were then centrifuged at 1800×g for 15 minutes.
Urine was further studied for its content of the ASA metabolites, namely SA and SUA. Waters HPLC system (Waters Chromatography, Division of Millipore, Milford, Mass.) with 3.9 mm×15 cm NOVA-PAK 4 μm silica packing steel column, C-18 Guard-Pak, and Milli-Q(tm) Millipore water filtration system were used for the characterization of SA and SUA. An isocratic methodology was developed and the separation was optimal by a mobile phase of 2% acetic acid/methanol, 70:30, at a flow rate of 1 ml/min. and a detection wavelength of 240 nm. One hundred μl of the collected 8 and 16 hour urine samples were diluted with 4 ml of methanol/mobile phase mixture (1:1) while the dilution was only with 2 ml for the 24, 48 and 72 hour urine samples.
The fractions under the specific retentiontimes of SA and SUA were collected in scintillation vials containing 15 ml of the scintillation cocktail and the radioactivity content was counted. The retention times of SA and SUA were determined by injection of authentic standard solution. Corrections have been made for the quenching effect of the mobile phase.
Student-t test and one way analysis of variance (ANOVA) followed by Scheffe multiple range test were used where appropriate. The accepted level of significance of difference was p<0.05.

Setting [4] is: oral 14C-ASA 10 mg/kg, alone or with SAM 3 mg/kg.
Where [5] appears, read: rat, in vivo, po, 10 mg/kg, 72 h.

“Also recorded” adds a separate entry of the source. Where two headings read alike, the source gives them in different places.

For the compound `CC(=O)Oc1ccccc1C(=O)O` [ASA, acetylsalicylic acid], the figures for the “Aspirin level in tissues studied (plasma, lung, liver, heart, kidney)” value in series [1] and in series [1] (listed as aspirin) were “not detected in the plasma” and “not detected”, respectively. Moreover, the “Change of 14C-SAM in lung by ASA” value in series [2] (low and high dose combinations) was “significantly lower”. For the same compound, the “Change of 14C-SAM in kidney by ASA” value in series [2] (low dose combination) is “significantly reduced”. In addition, the “Increase of 14C-SAM in liver with ASA” value in series [2] (lower dose combination) is recorded as “about 50%”. In addition, in series [3], the “Rate order of excretion of metabolites” value is listed as “first-order rate fashion”.

Take `NC(=O)c1ccccc1O` [SAM, Salicylamide]: the “Change of 14C-SA in kidney (low and high dose) and liver (high dose)” value in series [1] (SAM with 14C-ASA) is listed as “not markedly altered”. In addition, the “Parent SAM in plasma” value in series [2] (1.5 hours, 14C-SAM alone and with ASA, low and high doses) was “not detected”. The “Urinary SA, SUA and SA glucuronide, 0-8 hours” value in series [3] (ASA coadministered with SAM vs ASA alone) is “higher in the urine”. The “Effect on urinary 14C, 0-8 hour period” value in series [3] (SAM coadministered with 14C-ASA) is given as “increased”. In addition, the “Effect on urinary 14C, 8-28 hour period (so in the source)” value in series [3] (SAM coadministered with 14C-ASA vs 14C-ASA alone) was “significantly decreased”. The “Urinary content of SA, SUA and SA glucuronide after 0-8 hours” value in series [3] (SAM coadministration vs 14C-ASA alone) is given as “decreased”. Moreover, the “Effect on pattern of excretion of ASA metabolites in urine” value in series [3] (SAM with 14C-ASA, low doses) is listed as “did not affect the pattern of excretion of ASA metabolites in urine”.

With `N[14C](=O)c1ccccc1O` [^14 C-SAM], the “14C-SAM in heart” value is given as “not detected” in series [2] (14C-SAM 3 mg/kg with or without ASA 10 mg/kg) and “detected in the heart” in series [2] (1.5 hours, 14C-SAM 6 mg/kg alone or 14C-SAM/ASA 6/20 mg/kg). The concentration at 1.5 h came to 2.9 ± 1.7 ng/g in series [2] (heart, oral 14C-SAM 6 mg/kg, alone or with ASA 20 mg/kg, ND = not detected, read-out: 14C-salicylamide in heart); 152 ± 13.4 ng/g in series [2] (kidney, oral 14C-SAM 3 mg/kg, alone or with ASA 10 mg/kg, read-out: 14C-salicylamide in kidney); 181 ± 18.3 ng/g in series [2] (kidney, oral 14C-SAM 6 mg/kg, alone or with ASA 20 mg/kg, read-out: 14C-salicylamide in kidney); 16.6 ± 5.3 ng/g in series [2] (liver, oral 14C-SAM 3 mg/kg, alone or with ASA 10 mg/kg, read-out: 14C-salicylamide in liver); 29.4 ± 3.3 ng/g in series [2] (liver, oral 14C-SAM 6 mg/kg, alone or with ASA 20 mg/kg, read-out: 14C-salicylamide in liver); 17.1 ± 3 ng/g in series [2] (lung, oral 14C-SAM 3 mg/kg, alone or with ASA 10 mg/kg, read-out: 14C-salicylamide in lung). The concentration at 1.5 h in series [2] (lung, oral 14C-SAM 6 mg/kg, alone or with ASA 20 mg/kg, read-out: 14C-salicylamide in lung) came out at 41.9 ± 3.9 ng/g.

Consider `CC(=O)Oc1ccccc1[14C](=O)O` [^14 C-ASA], for which the “SUA in lung, heart, liver and plasma” value in series [1] (14C-ASA alone and with SAM) is “not detected; also recorded: The liver had no detectable level of SUA”. Also, in series [1] (low or high dose), the “Difference in kidney 14C-SUA with or without SAM” value was “no significant difference”; the “Gentisic acid and 2,3-dihydroxybenzoic acid in tissues” value is “not detected”. Also, in series [3] (14C-ASA alone or in combination with SAM), the “14C radioactivity recovered in urine” value is “Almost all the ^14 C radioactivity”. Moreover, in series [3] (14C-ASA alone or with SAM), the “SA share of the radioactivity excreted in urine” value is reported as “more than 50%” and the “SUA share of the metabolites in urine” value is “approximately 15%”. Besides, in series [3] (14C-ASA or 14C-CO2), the “14C in expired air” value is “No radioactivity was found”. Besides, the “Absorption from the gut” value in series [3] (14C-ASA oral) is “essentially a complete absorption”. Further, the “Rate order of excretion of metabolites” value in series [3] is recorded as “first-order rate pattern”. Besides, in series [3] (setting [4]), the “Urinary excretion of 14C, 0-72 hr” value turned out to be 3055 ± 23 μg ^14 C; the “Urinary excretion of 14C, 8-16 hr” value turned out to be 619 ± 124 μg ^14 C; the “Urinary excretion of 14C, 16-24 hr” value is 92 ± 26 μg ^14 C; the “Urinary excretion of 14C, 24-48 hr” value was determined as 60 ± 19 μg ^14 C. The “Urinary excretion of 14C, 48-72 hr” value in series [3] (setting [4]) came out at 11 ± 3 μg ^14 C. In series [3] (oral 14C-ASA 10 mg/kg, alone or with SAM 3 mg/kg, mean ± SE, n=6), the “Urinary excretion of 14C, 0-8 hr” value amounted to 2227 ± 138 μg ^14 C. The “Bioavailability of 14C” value in series [3] (rat, in vivo, po, 10 mg/kg) was 100%. Further, in series [3] (setting [5]), the “14C excreted in feces” value is reported as 1.0 ± 0.1 percentage of the dose, the “14C excreted in urine” value was 100.2 ± 0.8 percentage of the dose, the “Recovery of the administered dose” value was found to be 100% and the “Total Recovery of 14C” value was 101.7 ± 0.8 percentage of the dose.
